Experimental data published in PubChem BioAssay (NCI).
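Dose response: 5 concentrations. Exposure: 48 h. Format: 96-well plates. Endpoint: linear interpolation; highest concentration if not reached. Abbreviation: GI50, concentration required for 50% inhibition of growth. At the TGI there is no net growth.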

Legend:
Experiment in all cases: NCI-60 cell line screen, 48 h
[1] = tested on: 786-0 renal
[2] = tested on: A498 renal
[3] = tested on: A549 NSCLC
[4] = tested on: ACHN renal
[5] = tested on: CAKI-1 renal
[6] = tested on: CCRF-CEM leukemia
[7] = tested on: COLO 205 colon
[8] = tested on: DU-145 prostate
[9] = tested on: EKVX NSCLC
[10] = tested on: HCC-2998 colon
[11] = tested on: HCT-116 colon
[12] = tested on: HCT-15 colon
[13] = tested on: HOP-62 NSCLC
[14] = tested on: HOP-92 NSCLC
[15] = tested on: HS 578T breast
[16] = tested on: HT29 colon
[17] = tested on: IGROV1 ovarian
[18] = tested on: K-562 leukemia
[19] = tested on: KM12 colon
[20] = tested on: LOX IMVI melanoma
[21] = tested on: M14 melanoma
[22] = tested on: MALME-3M melanoma
[23] = tested on: MCF7 breast
[24] = tested on: MDA-MB-231 breast
[25] = tested on: MDA-MB-435
[26] = tested on: MOLT-4 leukemia
[27] = tested on: NCI-H226 lung
[28] = tested on: NCI-H23 lung
[29] = tested on: NCI-H460 lung
[30] = tested on: NCI-H522 lung
[31] = tested on: NCI/ADR-RES ovarian
[32] = tested on: OVCAR-3 ovarian
[33] = tested on: OVCAR-4 ovarian
[34] = tested on: OVCAR-5 ovarian
[35] = tested on: OVCAR-8 ovarian
[36] = tested on: PC-3 prostate
[37] = tested on: RPMI-8226 leukemia
[38] = tested on: RXF 393 renal
[39] = tested on: SF-268 CNS
[40] = tested on: SF-295 CNS
[41] = tested on: SF-539 CNS
[42] = tested on: SK-MEL-28 melanoma
[43] = tested on: SK-MEL-5 melanoma
[44] = tested on: SK-OV-3 ovarian
[45] = tested on: SN12C renal
[46] = tested on: SNB-19 CNS
[47] = tested on: SNB-75 CNS
[48] = tested on: SR leukemia
[49] = tested on: SW-620 colon
[50] = tested on: T-47D breast
[51] = tested on: TK-10 renal
[52] = tested on: U251 CNS
[53] = tested on: UACC-257 melanoma
[54] = tested on: UACC-62 melanoma
[55] = tested on: UO-31 renal

For `Oc1ccc(/C=N/Nc2nc3ccccc3s2)c(O)c1`, the GI50 [1] was 3.68 µM, the TGI [1] was 53.8 µM and the GI50 [2] was 4.16 µM. The TGI [2] was 36.8 µM, the GI50 [3] was 2.54 µM and the TGI [3] was 51.9 µM. For the same compound, the GI50 [4] was 1.11 µM, the TGI [4] was 9.89 µM and the GI50 [5] was 1.07 µM. The TGI [5] was 15.7 µM, the GI50 [6] was 0.717 µM and the TGI [6] was > 100 µM. The GI50 [7] was 3.11 µM, the TGI [7] was 21.3 µM and the GI50 [8] was 1.86 µM. For the same compound, the TGI [8] was 17.6 µM, the GI50 [9] was 2.86 µM and the TGI [9] was > 100 µM. It also gave a GI50 [10] of 3.76 µM, a TGI [10] of 19.4 µM and a GI50 [11] of 2.78 µM. It also gave a TGI [11] of 17.2 µM, a GI50 [12] of 0.734 µM and a TGI [12] of 20.6 µM. For the same compound, the GI50 [13] was 3.43 µM, the TGI [13] was > 100 µM and the GI50 [14] was 4.46 µM. The TGI [14] was > 100 µM, the GI50 [15] was 2.91 µM and the TGI [15] was > 100 µM. It also gave a GI50 [16] of 3.61 µM, a TGI [16] of 13.6 µM and a GI50 [17] of 0.904 µM. The TGI [17] was 10.8 µM, the GI50 [18] was 2.59 µM and the TGI [18] was > 100 µM. For the same compound, the GI50 [19] was 2.18 µM, the TGI [19] was 15.8 µM and the GI50 [20] was 3.27 µM. The TGI [20] was 28.8 µM, the GI50 [21] was 1.38 µM and the TGI [21] was 12.1 µM. For the same compound, the GI50 [22] was 1.43 µM, the TGI [22] was 7.26 µM and the GI50 [23] was 1.65 µM. It also gave a TGI [23] of 9.39 µM, a GI50 [24] of 1.69 µM and a TGI [24] of 12.9 µM. For the same compound, the GI50 [25] was 3.08 µM, the TGI [25] was > 100 µM and the GI50 [26] was 2.24 µM. For the same compound, the TGI [26] was 88.1 µM, the GI50 [27] was 3.56 µM and the TGI [27] was 65.9 µM. For the same compound, the GI50 [28] was 3.03 µM, the TGI [28] was > 100 µM and the GI50 [29] was 1.78 µM. The TGI [29] was 5.21 µM, the GI50 [30] was 1.39 µM and the TGI [30] was 6.11 µM. For the same compound, the GI50 [31] was 1.22 µM, the TGI [31] was > 100 µM and the GI50 [32] was 1.92 µM. The TGI [32] was 12.8 µM, the GI50 [33] was 0.381 µM and the TGI [33] was 2.93 µM. For the same compound, the GI50 [34] was 2.59 µM, the TGI [34] was 21 µM and the GI50 [35] was 1.65 µM. The TGI [35] was > 100 µM, the GI50 [36] was 4 µM and the TGI [36] was > 100 µM. For the same compound, the GI50 [37] was 2.55 µM, the TGI [37] was > 100 µM and the GI50 [38] was 3.36 µM. For the same compound, the TGI [38] was > 100 µM, the GI50 [39] was 1.11 µM and the TGI [39] was > 100 µM. For the same compound, the GI50 [40] was 2.86 µM, the TGI [40] was 35.4 µM and the GI50 [41] was 1.89 µM. For the same compound, the TGI [41] was 9.82 µM, the GI50 [42] was 2.99 µM and the TGI [42] was > 100 µM. The GI50 [43] was 3.37 µM, the TGI [43] was > 100 µM and the GI50 [44] was 2.14 µM. For the same compound, the TGI [44] was 8.93 µM, the GI50 [45] was 2.09 µM and the TGI [45] was 57.9 µM. For the same compound, the GI50 [46] was 2.8 µM, the TGI [46] was > 100 µM and the GI50 [47] was 1.51 µM. The TGI [47] was 9.96 µM, the GI50 [48] was 1.53 µM and the TGI [48] was 11.4 µM. For the same compound, the GI50 [49] was 3.47 µM, the TGI [49] was > 100 µM and the GI50 [50] was 3.37 µM. For the same compound, the TGI [50] was > 100 µM, the GI50 [51] was 2.1 µM and the TGI [51] was 45.2 µM. For the same compound, the GI50 [52] was 1.72 µM, the TGI [52] was > 100 µM and the GI50 [53] was 2.79 µM. It also gave a TGI [53] of 14.2 µM, a GI50 [54] of 1.75 µM and a TGI [54] of 4.82 µM. For the same compound, the GI50 [55] was 0.341 µM and the TGI [55] was 4.23 µM.
